Where a name gives a salt, the structure may show the parent alone. A value given as a limit tells only on which side of the number the result lay.

The first series relates to sodium channel. In words: Guanidine Influx Assay (In Vitro Assay). It counts as cell-based, human or rat. The following applies: known cell line that expresses a sodium channel; read-out: IC50 Activity Level. The text has this: This example describes an in vitro assay for testing and profiling test agents against human or rat sodium channels stably expressed in cells of either an endogenous or recombinant origin. The assay is also useful for determining the IC-50 of a sodium channel blocking compound. The assay is based on the guanidine flux assay described by Reddy, N. L., et al., J. Med. Chem. (1998), 41(17):3298-302.
The guanidine influx assay is a radiotracer flux assay used to determine ion flux activity of sodium channels in a high-throughput microplate-based format. The assay uses ^14C-guanidine hydrochloride in combination with various known sodium channel modulators, to assay the potency of test agents. Potency is determined by an IC-50 calculation. Selectivity is determined by comparing potency of the compound for the channel of interest to its potency against other sodium channels (also called ‘selectivity profiling’).
Each of the test agents is assayed against cells that express the channels of interest. Voltage gated sodium channels are either TTX sensitive or insensitive. This property is useful when evaluating the activities of a channel of interest when it resides in a mixed population with other sodium channels. The following Table 1 summarizes cell lines useful in screening for a certain channel activity in the presence or absence of TTX.
Cells expressing the channel of interest are grown according to the supplier or in the case of a recombinant cell in the presence of selective growth media such as G418 (Gibco/Invitrogen). The cells are disassociated from the culture dishes with an enzymatic solution (1×) Trypsin/EDTA (Gibco/Invitrogen) and analyzed for density and viability using haemocytometer (Neubauer). Disassociated cells are washed and resuspended in their culture media then plated into Scintiplates (Beckman Coulter Inc.) (approximately 100,000 cells/well) and incubated at 37° C./5% CO2. for 20-24 hours. After an extensive wash with Low sodium HEPES-buffered saline solution (LNHBSS) (150 mM Choline Chloride, […] (Sigma), 1 mM Calcium Chloride, 5 mM Potassium Chloride, 1 mM Magnesium Chloride, 10 mM Glucose) agents diluted with LNHBSS are added to each well. (Varying concentrations of test agent may be used). The activation/radiolabel mixture contains aconitine (Sigma), and ^14C-guanidine hydrochloride (ARC).
After loading the cells with test agent and activation/radiolabel mixture, the Scintiplates are incubated at ambient temperature. Following the incubation, the Scintplates are extensively washed with LNHBSS supplemented with guanidine (Sigma). The Scintiplates are dried and then counted using a Wallac MicroBeta TriLux (Perkin-Elmer Life Sciences). The ability of the test agent to block sodium channel activity is determined by comparing the amount of ^14C-guanidine present inside the cells expressing the different sodium channels.
IC-50 value of a test agent for a specific sodium channel may be determined using the above general method. IC-50 may be determined using a 3,8,10,12 or 16 point curve in duplicate or triplicate with a starting concentration of 1, 5 or 10 μM diluted serially with a final concentration reaching the sub-nanomolar, nanomolar and low micromolar ranges. Typically the mid-point concentration of test agent is set at 1 μM, and sequential concentrations of half dilutions greater or smaller are applied (e.g. 0.5 μM; […] and 0.25 μM; 10 μM and 0.125 μM; 20 μM etc.). The IC-50 curve is calculated using the 4 Parameter Logistic Model or Sigmoidal Dose-Response Model formula (fit=(A+((B−A)/(1+((C/x)̂D)))).
`CCCCc1nc2ccccn2c(=O)c1-c1ccc(OC)cc1` [Example 1, 2-butyl-3-(4-methoxyphenyl)-4H-pyrido[1,2-a]pyrimidin-4-one]: the IC50 was ≥ 10 µM.

As to `CCCCc1nc2ccccn2c(=O)c1-c1ccc(Cl)cc1` [Example 1.8, 2-butyl-3-(4-chlorophenyl)-4H-pyrido[1,2-a]pyrimidin-4-one], the IC50 was ≥ 10 µM. The same measure, in the same setting: in the case of `CCCCc1nc2cc(C(F)(F)F)ccn2c(=O)c1-c1ccc(Cl)cc1` [Example 1.21, 2-butyl-3-(4-chlorophenyl)-8-(trifluoromethyl)-4H-pyrido[1,2-a]pyrimidin-4-one] it was ≥ 10 µM. Same read-out and setting: in the case of `CCCOc1nc2ccccn2c(=O)c1-c1ccc(Cl)cc1` [Example 1.25, 2-propoxy-3-(4-chlorophenyl)-4H-pyrido[1,2-a]pyrimidin-4-one] it was 1 to 10 µM; in that of `CCCCc1nc2ccccn2c(=O)c1-c1ccc2c(c1)CCN2` [Example 2, 2-butyl-3-(indolin-5-yl)-4H-pyrido[1,2-a]pyrimidin-4-one hydrochloride], ≥ 10 µM; in that of `CCc1nc2ccccn2c(=O)c1-c1ccc(N[C@@H]2CCN(C(=O)OC(C)(C)C)C2)cc1` [Example 3.4, (R)-tert-butyl 3-(4-(2-ethyl-4-oxo-4H-pyrido[1,2-a]pyrimidin-3-yl)phenylamino)pyrrolidine-1-carboxylate], ≥ 10 µM. As for `CCCCc1nc2ccccn2c(=O)c1-c1ccc(N2CCOCC2)cc1` [Example 3.25, 2-butyl-3-(4-morpholin-4-ylphenyl)-4H-pyrido[1,2-a]pyrimidin-4-one], the IC50 was ≥ 10 µM. The same measure, in the same setting: for `CCCCc1nc2ccccn2c(=O)c1-c1ccc(NC2CCOCC2)cc1` [Example 3.26, 2-butyl-3-[4-(tetrahydro-2H-pyran-4-ylamino)phenyl]-4H-pyrido[1,2-a]pyrimidin-4-one hydrochloride] the value was ≥ 10 µM; for `CCCCc1nc2ccccn2c(=O)c1-c1ccc(NC[C@H]2CCCO2)cc1` [Example 3.27, (R)-2-butyl-3-(4-{[tetrahydrofuran-2-ylmethyl]amino}phenyl)-4H-pyrido[1,2-a]pyrimidin-4-one hydrochloride], ≥ 10 µM; for `CCCCc1nc2ccccn2c(=O)c1-c1ccc(NC[C@@H]2CCCO2)cc1` [Example 3.28, (S)-2-butyl-3-(4-{[tetrahydrofuran-2-ylmethyl]amino}phenyl)-4H-pyrido[1,2-a]pyrimidin-4-one hydrochloride], ≥ 10 µM. Same read-out and setting: for `CCCCc1nc2ccccn2c(=O)c1-c1ccc(N[C@@H]2CCOC2)cc1` [Example 3.29, (R)-2-butyl-3-{4-[tetrahydrofuran-3-ylamino]phenyl}-4H-pyrido[1,2-a]pyrimidin-4-one hydrochloride] the value was ≥ 10 µM; for `CCCCc1nc2ccccn2c(=O)c1-c1ccc(NC2CCCNC2)cc1` (centres unmarked) [Example 6, 2-butyl-3-[4-(piperidin-3-ylamino)phenyl]-4H-pyrido[1,2-a]pyrimidin-4-one hydrochloride], ≥ 10 µM. With `CCCCc1nc2ccccn2c(=O)c1-c1ccc(NC2CCNCC2)cc1` [Example 6.1, 2-butyl-3-[4-(piperidin-4-ylamino)phenyl]-4H-pyrido[1,2-a]pyrimidin-4-one hydrochloride], the half-maximal inhibitory concentration (IC50) was ≥ 10 µM. For `CCCCc1nc2ccccn2c(=O)c1-c1ccc(N[C@@H]2CCCNC2)cc1` [Example 6.2, (R)-2-butyl-3-{4-[piperidin-3-ylamino]phenyl}-4H-pyrido[1,2-a]pyrimidin-4-one hydrochloride], the concentration for half-maximal inhibition (IC50) was ≥ 10 µM. On the same count and under the same terms, in the case of `Cc1nc2ccccn2c(=O)c1-c1ccc(N[C@@H]2CCNC2)cc1` [Example 6.3, (R)-2-methyl-3-(4-(pyrrolidin-3-ylamino)phenyl)-4H-pyrido[1,2-a]pyrimidin-4-one hydrochloride] it was ≥ 10 µM; in that of `CCc1nc2ccccn2c(=O)c1-c1ccc(N[C@@H]2CCNC2)cc1` [Example 6.4, (R)-2-ethyl-3-(4-(pyrrolidin-3-ylamino)phenyl)-4H-pyrido[1,2-a]pyrimidin-4-one hydrochloride], ≥ 10 µM; in that of `CCCc1nc2ccccn2c(=O)c1-c1ccc(N[C@@H]2CCNC2)cc1` [Example 6.5, (R)-2-propyl-3-(4-(pyrrolidin-3-ylamino)phenyl)-4H-pyrido[1,2-α]pyrimidin-4-one hydrochloride], ≥ 10 µM. Still for that read-out and setting: for `CCCCc1nc2ccc(C)cn2c(=O)c1-c1ccc(N[C@@H]2CCNC2)cc1` [Example 6.6, (R)-2-butyl-7-methyl-3-{4-[pyrrolidin-3-ylamino]phenyl}-4H-pyrido[1,2-a]pyrimidin-4-one hydrochloride] the value was ≥ 10 µM; for `CCCCc1nc2ccc(F)cn2c(=O)c1-c1ccc(N[C@@H]2CCNC2)cc1` [Example 6.7, (R)-2-butyl-7-fluoro-3-{4-[pyrrolidin-3-ylamino]phenyl}-4H-pyrido[1,2-a]pyrimidin-4-one hydrochloride], ≥ 10 µM; for `CCCCc1nc2cc(C(F)(F)F)ccn2c(=O)c1-c1ccc(N[C@@H]2CCNC2)cc1` [Example 6.8, (R)-2-butyl-3-{4-[pyrrolidin-3-ylamino]phenyl}-8-(trifluoromethyl)-4H-pyrido[1,2-a]pyrimidin-4-one hydrochloride], ≥ 10 µM. `CCCCc1nc2c3ccccc3ccn2c(=O)c1-c1ccc(N[C@@H]2CCNC2)cc1` [Example 6.9, (R)-2-butyl-3-{4-[pyrrolidin-3-ylamino]phenyl}-4H-pyrimido[2,1-a]isoquinolin-4-one hydrochloride]: the IC50 is ≥ 10 µM.

Tested on in a further series: not given
Assay: not given
Conditions: not given
On to `CC(C)CCc1nc2ccccn2c(=O)c1-c1ccc(Cl)cc1` [Example 1.17, 3-(4-chlorophenyl)-2-isopentyl-4H-pyrido[1,2-a]pyrimidin-4-one], for which the melting point was 146 to 149 °C. The compound `COCCc1nc2ccccn2c(=O)c1-c1ccc(Cl)cc1` [Example 1.26, 3-(4-chlorophenyl)-2-(2-methoxyethyl)-4H-pyrido[1,2-a]pyrimidin-4-one] registered a melting point of 116 to 118 °C. `CCCCc1nc2ccccn2c(=O)c1-c1ccc2[nH]ccc2c1` [Example 1.30, 2-butyl-3-(1H-indol-5-yl)-4H-pyrido[1,2-a]pyrimidin-4-one] gave a melting point of 132 to 135 °C. Consider `CCCCc1nc2ccccn2c(=O)c1-c1ccc(NC2CCN(C(=O)OC(C)(C)C)C2)cc1` (centres unmarked) [Example 3.7, tert-butyl 3-{[4-(2-butyl-4-oxo-4H-pyrido[1,2-a]pyrimidin-3-yl)phenyl]amino}pyrrolidine-1-carboxylate], for which the melting point was in the range of 116 to 118 °C. `CCCCc1nc2ccccn2c(=O)c1-c1ccc(N[C@H]2CCN(C(=O)OC(C)(C)C)C2)cc1` [Example 3.8, (S)-tert-butyl 3-(4-(2-butyl-4-oxo-4H-pyrido[1,2-a]pyrimidin-3-yl)phenylamino)pyrrolidine-1-carboxylate] gave a melting point of 95 to 96 °C. Still for that read-out and setting: for `CCCCc1nc2ccccn2c(=O)c1-c1ccc(N[C@@H]2CCN(C(=O)OC(C)(C)C)C2)cc1` [Example 3.9, (R)-tert-butyl 3-(4-(2-butyl-4-oxo-4H-pyrido[1,2-a]pyrimidin-3-yl)phenylamino)pyrrolidine-1-carboxylate] the value was 98 to 99 °C. Still for that read-out and setting: in the case of `CC(C)Nc1nc2ccccn2c(=O)c1-c1ccc(N[C@@H]2CCN(C(=O)OC(C)(C)C)C2)cc1` [Example 3.23, (R)-tert-butyl 3-[(4-{2-[(1-methylethyl)amino]-4-oxo-4H-pyrido[1,2-a]pyrimidin-3-yl}phenyl)amino]pyrrolidine-1-carboxylate] it was 208 to 211 °C; in that of `CCCCc1nc2ccccn2c(=O)c1-c1ccc(N[C@@H]2CCN(C)C2)cc1` [Example 10, (R)-2-butyl-3-(4-{[1-methylpyrrolidin-3-yl]amino}phenyl)-4H-pyrido[1,2-a]pyrimidin-4-one], 141 to 143 °C.
